Reference: the supplement of paper PMC10307832

How the values were obtained:
Test in all cases: relative viability (nuclei count vs DMSO), 5 days (fraction); higher = more cells survive
[1] = compound: Cc1ccc(C(=O)N(CCCN)[C@@H](c2nc3cc(Cl)ccc3c(=O)n2Cc2ccccc2)C(C)C)cc1 [Ispinesib] + COc1cccc2cc(-c3nc([C@H]4CC[C@H](C(=O)O)CC4)n4ncnc(N)c34)[nH]c12 [OSI-027] (partner 0.5 µM)
Summary of the method: (§1)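 After 5 days of treatment, lung cancer cells in 1536-well plates were fixed and stained in a single step (final 0.05% Triton X-100, 1% formaldehyde, 1 ug/ml Hoechst) and their nuclei counted on 4× images. Treatment had been applied by pin tool the day after seeding as one drug alone or as a fixed anchor-drug dose with five library-drug doses (not always all listed) in √10 steps. Relative viability is the nuclei count of treated wells divided by that of vehicle wells, and values are medians of duplicate plates.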

[2] = compound: Cc1ccc(C(=O)N(CCCN)[C@@H](c2nc3cc(Cl)ccc3c(=O)n2Cc2ccccc2)C(C)C)cc1 [Ispinesib] + CC(=O)Nc1cccc(-n2c(=O)n(C3CC3)c(=O)c3c(Nc4ccc(I)cc4F)n(C)c(=O)c(C)c32)c1 [Trametinib] (partner 0.02 µM)
Summary of the method: as §1

[3] = compound: Cc1ccc(C(=O)N(CCCN)[C@@H](c2nc3cc(Cl)ccc3c(=O)n2Cc2ccccc2)C(C)C)cc1 [Ispinesib] + Cc1nc(NC(=O)N2CCC[C@H]2C(N)=O)sc1-c1ccnc(C(C)(C)C(F)(F)F)c1 [Alpelisib] (partner 2 µM)
Summary of the method: as §1

[4] = compound: Cc1ccc(C(=O)N(CCCN)[C@@H](c2nc3cc(Cl)ccc3c(=O)n2Cc2ccccc2)C(C)C)cc1 [Ispinesib] + CS(=O)(=O)N1CCN(Cc2cc3nc(-c4cccc5[nH]ncc45)nc(N4CCOCC4)c3s2)CC1 [Pictilisib] (partner 1 µM)
Summary of the method: as §1

| Cell Line | relative viability ([1]; first compound 0.001 µM) | relative viability ([1]; first compound 0.003162 µM) | relative viability ([1]; first compound 0.01 µM) | relative viability ([1]; first compound 0.03162 µM) | relative viability ([1]; first compound 0.1 µM) | relative viability ([2]; first compound 0.001 µM) | relative viability ([2]; first compound 0.003162 µM) | relative viability ([2]; first compound 0.01 µM) | relative viability ([2]; first compound 0.03162 µM) | relative viability ([2]; first compound 0.1 µM) | relative viability ([3]; first compound 0.001 µM) | relative viability ([3]; first compound 0.003162 µM) | relative viability ([3]; first compound 0.01 µM) | relative viability ([3]; first compound 0.03162 µM) | relative viability ([3]; first compound 0.1 µM) | relative viability ([4]; first compound 0.001 µM) | relative viability ([4]; first compound 0.003162 µM) | relative viability ([4]; first compound 0.01 µM) | relative viability ([4]; first compound 0.03162 µM) | relative viability ([4]; first compound 0.1 µM) |
| --- | --- | --- | --- | --- | --- | --- | --- | --- | --- | --- | --- | --- | --- | --- | --- | --- | --- | --- | --- | --- |
| NCI-H647 | 0.76 | 0.696 | 0.766 | 0.235 | 0.107 | 0.536 | 0.508 | 0.434 | 0.209 | 0.133 | 1.38 | 1.26 | 1.66 | 0.192 | 0.14 | 0.402 | 0.504 | 0.449 | 0.104 | 0.0557 |
| NCI-H650 | 0.571 | 0.624 | 0.585 | 0.381 | 0.23 | 0.969 | 1.07 | 1.03 | 0.828 | 0.779 | 1.11 | 1.23 | 1.29 | 1.05 | 0.353 | 0.861 | 0.99 | 0.868 | 0.827 | 0.402 |
| NCI-H661 | 0.744 | 0.831 | 0.721 | 0.493 | 0.263 | 0.625 | 0.616 | 0.567 | 0.274 | 0.277 | 0.593 | 0.972 | 0.745 | 0.369 | 0.508 | 0.387 | 0.471 | 0.41 | 0.31 | 0.332 |
| NCI-H727 | 0.856 | 0.707 | 0.604 | 0.404 | 0.361 | 0.376 | 0.39 | – | 0.382 | 0.419 | – | 0.565 | 0.545 | 0.486 | 0.404 | – | 0.461 | 0.313 | 0.232 | 0.239 |
| NCI-H838 | 0.425 | 0.359 | 0.539 | 0.436 | 0.197 | 0.627 | 0.529 | 0.542 | 0.359 | 0.164 | 1.17 | 1.06 | 1.1 | 1.04 | 0.426 | 0.451 | 0.494 | 0.544 | 0.392 | 0.257 |
| NCI-H1355 | 0.352 | 0.442 | 0.427 | 0.316 | 0.261 | 0.469 | 0.456 | 0.41 | 0.414 | 0.288 | 0.841 | 0.866 | 0.979 | 0.596 | 0.859 | 0.418 | 0.434 | 0.489 | 0.252 | 0.198 |
| NCI-H1395 | 0.642 | 0.681 | 0.67 | 0.384 | 0.316 | 1.13 | 1.1 | 1.06 | 0.682 | 0.409 | 1.14 | 0.945 | 0.87 | 0.398 | 0.493 | 0.604 | 0.663 | 0.63 | 0.368 | 0.383 |
| NCI-H1437 | 1.1 | 0.881 | 1.16 | 0.938 | 0.263 | 0.557 | 0.541 | 0.688 | 0.614 | 0.144 | 1.11 | 1.14 | 0.972 | 0.893 | 0.272 | 0.46 | 0.48 | 0.477 | 0.393 | 0.207 |
| NCI-H1651 | 0.837 | 0.696 | 0.848 | 0.684 | 0.137 | 0.836 | 0.896 | 0.887 | 0.882 | 0.831 | 0.957 | 0.99 | 1.26 | 1.05 | 0.206 | 0.623 | 0.66 | 0.8 | 0.491 | 0.18 |
| NCI-H1666 | 0.749 | 0.889 | 0.864 | 0.712 | 0.476 | 0.934 | 0.864 | 0.788 | 0.858 | 0.604 | 1.07 | 0.936 | 0.988 | 0.567 | 0.388 | 0.42 | 0.404 | 0.42 | 0.302 | 0.312 |
| NCI-H1734 | 0.609 | 0.585 | 0.659 | 0.459 | 0.177 | 0.685 | 0.622 | 0.684 | 0.684 | 0.429 | 0.659 | 0.743 | 0.763 | 0.721 | 0.517 | 0.414 | 0.476 | 0.506 | 0.34 | 0.233 |
| NCI-H1755 | 0.665 | 0.791 | 0.859 | 0.57 | 0.321 | 0.843 | 0.838 | 0.751 | 0.713 | 0.758 | 1.09 | 1.03 | 1.16 | 0.815 | 0.547 | 0.403 | 0.464 | 0.534 | 0.22 | 0.194 |
| NCI-H1792 | 0.889 | 1.09 | 0.743 | 0.862 | 0.356 | 0.42 | 0.463 | 0.515 | 0.398 | 0.117 | 0.838 | 0.68 | 0.692 | 0.393 | 0.44 | 0.289 | 0.303 | 0.254 | 0.177 | 0.302 |
| NCI-H1793 | 0.275 | 0.343 | 0.294 | 0.22 | 0.16 | 0.47 | 0.433 | 0.412 | 0.421 | 0.244 | 0.677 | 0.713 | 1.17 | 0.783 | 0.328 | 0.331 | 0.404 | 0.39 | 0.217 | 0.124 |
